Values quoted from earlier work in US7439256B2, “(Arylamidoaryl) cyanoguanidine compounds” (priority 2004, dated 2008).
Counter-ions that a name gives are not always drawn.

Tested on: MO7e human leukemia cells

For `Cc1ccc(NC(=O)c2ccc(CN3CCN(C)CC3)cc2)cc1Nc1nccc(-c2cccnc2)n1` [Gleevec, imatinib mesylate], the “GM-CSF stimulated growth of MO7e human leukemia cells” value (GM-CSF stimulated) is given as “not affected”, the “Kit ligand-stimulated growth of MO7e human leukemia cells” value (Kit ligand-stimulated) is given as “inhibited” and the “apoptosis in MO7e human leukemia cells” value (Kit ligand-stimulated conditions) is given as “induces apoptosis”.
